We go through 41 compounds from patent US9688695B2, “Imidazothiadiazole and imidazopyrazine derivatives as protease activated receptor 4 (PAR4) inhibitors for treating platelet aggregation” (BRISTOL-MYERS SQUIBB COMPANY, priority 2012, dated 2017).

A word on the EC50: it is the midpoint of the concentration-response curve.

PAR4, sequence (Q96RI0 18-385): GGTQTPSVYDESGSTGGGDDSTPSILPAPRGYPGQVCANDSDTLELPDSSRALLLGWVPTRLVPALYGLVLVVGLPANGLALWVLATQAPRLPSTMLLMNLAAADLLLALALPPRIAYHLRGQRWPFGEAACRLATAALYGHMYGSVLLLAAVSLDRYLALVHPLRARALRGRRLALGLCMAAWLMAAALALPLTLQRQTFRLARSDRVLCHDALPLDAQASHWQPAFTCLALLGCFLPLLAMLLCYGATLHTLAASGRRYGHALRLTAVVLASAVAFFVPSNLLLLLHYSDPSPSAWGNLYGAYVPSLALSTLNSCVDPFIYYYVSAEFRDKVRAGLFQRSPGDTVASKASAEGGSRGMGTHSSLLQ

In this assay the target is PAR4 (Homo sapiens (Human), UniProt Q96RI0). Kind of assay: FLIPR assay in PAR4-expressing HEK293 cells (PAR4 antagonist activity, calcium mobilization). The assay is classed as cell-based. The conditions noted are these: H-Ala-Phe(4-F)-Pro-Gly-Trp-Leu-Val-Lys-Asn-Gly-NH2-induced calcium mobilization. A digest of the protocol:
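HEK293 EBNA cells stably expressing human PAR4 (also endogenous PAR1) preincubated 30 min at room temperature with compound in HBSS/10 mM HEPES, 0.67% DMSO final. PAR4 agonist peptide then added and intracellular calcium mobilization monitored by fluorescence.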
Background: Calcium flux is commonly read through the fluorescence of an indicator in the cells.
On to `CNC(=O)c1ccc(-c2nc(COc3cc(F)cc4oc(-c5cn6nc(OC)sc6n5)cc34)c(C)s2)cc1` [Example 186, 4-(4-(((6-Fluoro-2-(2-methoxyimidazo[2,1-b][1,3,4]thiadiazol-6-yl)benzofuran-4-yl)oxy)methyl)-5-methylthiazol-2-yl)-N-methylbenzamide], for which the EC50 worked out at 580 pM.
In the case of `COc1nn2cc(-c3cc4c(OCc5csc(-c6ccccc6)n5)cc(Cl)cc4o3)nc2s1` [Example 187, 6-(6-Chloro-4-((2-phenylthiazol-4-yl)methoxy)benzofuran-2-yl)-2-methoxyimidazo[2,1-b][1,3,4]thiadiazole] it was 1600 pM.
In the case of `COc1nn2cc(-c3cc4c(OCc5csc(-c6ccc(Cl)cc6)n5)cc(Cl)cc4o3)nc2s1` [Example 188, 6-(6-Chloro-4-((2-(4-chlorophenyl)thiazol-4-yl)methoxy)benzofuran-2-yl)-2-methoxyimidazo[2,1-b][1,3,4]thiadiazole] it was 850 pM; in that of `COc1nn2cc(-c3cc4c(OCc5csc(-c6cccc(C)c6)n5)cc(Cl)cc4o3)nc2s1` [Example 189, 6-(6-Chloro-4-((2-(m-tolyl)thiazol-4-yl)methoxy)benzofuran-2-yl)-2-methoxyimidazo[2,1-b][1,3,4]thiadiazole], 1300 pM; in that of `COc1nn2cc(-c3cc4c(OCc5csc(C6(F)CCOCC6)n5)cc(Cl)cc4o3)nc2s1` [Example 190], 470 pM.
As for `COc1nn2cc(-c3cc4c(OCc5csc(-c6ccccc6)n5)cccc4o3)nc2s1` [Example 191, 2-Methoxy-6-(4-((2-phenylthiazol-4-yl)methoxy)benzofuran-2-yl)imidazo[2,1-b][1,3,4]thiadiazole], the EC50 was found to be 2600 pM.
With `COc1cc(OCc2csc(N3CCOCC3)n2)c2cc(-c3cn4nc([C@H](C)F)sc4n3)oc2c1` [Example 193, (S)-4-(4-(((2-(2-(1-Fluoroethyl)imidazo[2,1-b][1,3,4]thiadiazol-6-yl)-6-methoxybenzofuran-4-yl)oxy)methyl)thiazol-2-yl)morpholine], the EC50 turned out to be 910 pM.
In the case of `COc1cc(OCc2csc(-c3ccc(C(=O)N(C)C)cc3)n2)c2cc(-c3cn4nc([C@H](C)F)sc4n3)oc2c1` [Example 194, (S)-4-(4-(((2-(2-(1-Fluoroethyl)imidazo[2,1-b][1,3,4]thiadiazol-6-yl)-6-methoxybenzofuran-4-yl)oxy)methyl)thiazol-2-yl)-N,N-dimethylbenzamide] it was 1600 pM.
Consider `C[C@H](F)c1nn2cc(-c3cc4c(OCc5csc(-c6ccccc6)n5)cc(F)cc4o3)nc2s1` [Example 195], for which the EC50 is 1300 pM.
As to `COc1cc(OCc2csc(C3(O)CCOCC3)n2)c2cc(-c3cn4nc([C@H](C)F)sc4n3)oc2c1` [Example 196, (S)-4-(4-(((2-(2-(1-Fluoroethyl)imidazo[2,1-b][1,3,4]thiadiazol-6-yl)-6-methoxybenzofuran-4-yl)oxy)methyl)thiazol-2-yl)tetrahydro-2H-pyran-4-ol], the 50% effective concentration (EC50) worked out at 460 pM.
`COc1cc(OCc2csc(C3(F)CCOCC3)n2)c2cc(-c3cn4nc([C@H](C)F)sc4n3)oc2c1` [Example 197, (S)-2-(1-Fluoroethyl)-6-(4-((2-(4-fluorotetrahydro-2H-pyran-4-yl)thiazol-4-yl)methoxy)-6-methoxybenzofuran-2-yl)imidazo[2,1-b][1,3,4]thiadiazole]: the EC50 worked out at 340 pM.
For `COc1cc(OCc2csc(C3(O)CC(C)OC(C)C3)n2)c2cc(-c3cn4nc([C@H](C)F)sc4n3)oc2c1` (stereo partly drawn) [Example 198, 4-(4-(((2-(2-((S)-1-Fluoroethyl)imidazo[2,1-b][1,3,4]thiadiazol-6-yl)-6-methoxybenzofuran-4-yl)oxy)methyl)thiazol-2-yl)-2,6-dimethyltetrahydro-2H-pyran-4-ol], the EC50 was 420 pM.
In the case of `COc1cc(OCc2csc(C3(F)CC(C)OC(C)C3)n2)c2cc(-c3cn4nc([C@H](C)F)sc4n3)oc2c1` (stereo partly drawn) [Example 199, 6-(4-((2-(4-Fluoro-2,6-dimethyltetrahydro-2H-pyran-4-yl)thiazol-4-yl)methoxy)-6-methoxybenzofuran-2-yl)-2-((S)-1-fluoroethyl)imidazo[2,1-b][1,3,4]thiadiazole] it was 1100 pM; in that of `COc1cc(OCc2nc(C3(O)CCOCC3)sc2C)c2cc(-c3cn4nc([C@H](C)F)sc4n3)oc2c1` [Example 200, (S)-4-(4-(((2-(2-(1-Fluoroethyl)imidazo[2,1-b][1,3,4]thiadiazol-6-yl)-6-methoxybenzofuran-4-yl)oxy)methyl)-5-methylthiazol-2-yl)tetrahydro-2H-pyran-4-ol], 510 pM.
Take `COc1cc(OCc2csc(-c3ccccc3)n2)c2cc(-c3cn4nc(C)ccc4n3)oc2c1` [Example 203, 4-(((6-Methoxy-2-(6-methylimidazo[1,2-b]pyridazin-2-yl)benzofuran-4-yl)oxy)methyl)-2-phenylthiazole]: the EC50 was 760 pM.
On to `COc1cc(OCc2csc(C3CCSCC3)n2)c2cc(-c3cn4nc(C)ccc4n3)oc2c1` [Example 204, 4-(((6-Methoxy-2-(6-methylimidazo[1,2-b]pyridazin-2-yl)benzofuran-4-yl)oxy)methyl)-2-(tetrahydro-2H-thiopyran-4-yl)thiazole], for which the EC50 came out at 720 pM.
In the case of `COc1cc(OCc2csc(Cl)n2)c2cc(-c3cn4nc(C)ccc4n3)oc2c1` [Example 206, 2-Chloro-4-(((6-methoxy-2-(6-methylimidazo[1,2-b]pyridazin-2-yl)benzofuran-4-yl)oxy)methyl)thiazole] it was 12000 pM.
Take `COc1cc(OCc2csc(N3CCN(C)CC3)n2)c2cc(-c3cn4nc(C)ccc4n3)oc2c1` [Example 207, 4-(((6-Methoxy-2-(6-methylimidazo[1,2-b]pyridazin-2-yl)benzofuran-4-yl)oxy)methyl)-2-(4-methylpiperazin-1-yl)thiazole]: the EC50 was determined as 7700 pM.
Take `COc1cc(OCc2csc(-c3ccc(C(F)(F)F)cc3)n2)c2cc(-c3cn4nc(C)ccc4n3)oc2c1` [Example 208, 4-(((6-Methoxy-2-(6-methylimidazo[1,2-b]pyridazin-2-yl)benzofuran-4-yl)oxy)methyl)-2-(4-(trifluoromethyl)phenyl)thiazole]: the EC50 was 820 pM.
The figure for `COc1cc(OCc2csc(-c3ccc(OC(F)(F)F)cc3)n2)c2cc(-c3cn4nc(C)ccc4n3)oc2c1` [Example 210, 4-(((6-Methoxy-2-(6-methylimidazo[1,2-b]pyridazin-2-yl)benzofuran-4-yl)oxy)methyl)-2-(4-(trifluoromethoxy)phenyl)thiazole] is 860 pM; for `COc1cc(OCc2csc(-c3ccncc3)n2)c2cc(-c3cn4nc(C)ccc4n3)oc2c1` [Example 211, 4-(((6-Methoxy-2-(6-methylimidazo[1,2-b]pyridazin-2-yl)benzofuran-4-yl)oxy)methyl)-2-(pyridin-4-yl)thiazole] it is 720 pM.
The figure for `COc1cc(OCc2csc(C3(F)CCOCC3)n2)c2cc(-c3cn4nc(C)ccc4n3)oc2c1` [Example 212, 2-(4-Fluorotetrahydro-2H-pyran-4-yl)-4-(((6-methoxy-2-(6-methylimidazo[1,2-b]pyridazin-2-yl)benzofuran-4-yl)oxy)methyl)thiazole] is 290 pM; for `COc1cc(OCc2csc(C3CCOCC3)n2)c2cc(-c3cn4nc(C)ccc4n3)oc2c1` [Example 213] it is 3600 pM.
The figure for `COc1ccc(-c2nc(COc3cc(OC)cc4oc(-c5cn6nc(C)ccc6n5)cc34)cs2)cc1` [Example 214] is 1200 pM; for `COc1cc(OCc2csc(N3CCOCC3)n2)c2cc(-c3cn4nc(C)ccc4n3)oc2c1` [Example 215] it is 3300 pM; for `COc1cc(OCc2csc(N3C[C@@H](C)O[C@@H](C)C3)n2)c2cc(-c3cn4nc(C)ccc4n3)oc2c1` [Example 216] it is 990 pM.
On to `COc1cc(OCc2csc(N3CCSCC3)n2)c2cc(-c3cn4nc(C)ccc4n3)oc2c1` [Example 217], for which the EC50 amounted to 610 pM.
The figure for `COc1cc(OCc2csc(N3CCCOCC3)n2)c2cc(-c3cn4nc(C)ccc4n3)oc2c1` [Example 218] is 560 pM.
For the compound `COc1cc(OCc2nc(N3CCOCC3)sc2C(F)(F)F)c2cc(-c3cn4nc(C)ccc4n3)oc2c1` [Example 220], the EC50 turned out to be 720 pM.
The figure for `COc1cc(OCc2csc(-c3cccc(OC(C)=O)c3)n2)c2cc(-c3cn4nc(C)ccc4n3)oc2c1` [Example 221] is 1200 pM; for `COc1cc(OCc2csc(-c3cccc(O)c3)n2)c2cc(-c3cn4nc(C)ccc4n3)oc2c1` [Example 222] it is 650 pM; for `COc1cc(OCc2csc(-c3ccc(C(=O)N(C)C)cc3)n2)c2cc(-c3cn4nc(C)ccc4n3)oc2c1` [Example 223] it is 620 pM.
On to `COc1cc(OCc2csc(-c3ccc(C#N)cc3)n2)c2cc(-c3cn4nc(C)ccc4n3)oc2c1` [Example 224], for which the EC50 is 750 pM.
In the case of `COc1cc(OCc2nc(-c3ccc(C(=O)N(C)C)cc3)sc2C)c2cc(-c3cn4nc(C)ccc4n3)oc2c1` [Example 225] it was 540 pM.
The figure for `COc1cc(OCc2csc(-c3ccc(COC(C)=O)cc3)n2)c2cc(-c3cn4nc(C)ccc4n3)oc2c1` [Example 226] is 810 pM; for `COc1cc(OCc2nc(-c3ccnc(F)c3)sc2C)c2cc(-c3cn4nc(C)ccc4n3)oc2c1` [Example 227] it is 310 pM.
The figure for `COc1cc(OCc2csc(-c3ccc(F)nc3)n2)c2cc(-c3cn4nc(C)ccc4n3)oc2c1` [Example 228] is 180 pM; for `COc1cc(OCc2nc(-c3cccc(COC(C)=O)c3)sc2C)c2cc(-c3cn4nc(C)ccc4n3)oc2c1` [Example 229] it is 760 pM.
Take `COc1cc(OCc2nc(-c3cccc(CO)c3)sc2C)c2cc(-c3cn4nc(C)ccc4n3)oc2c1` [Example 230]: the EC50 was found to be 1300 pM.
The figure for `COc1cc(OCc2csc(-c3ccc(C)nc3)n2)c2cc(-c3cn4nc(C)ccc4n3)oc2c1` [Example 231] is 1800 pM; for `COc1cc(OCc2csc(-c3ccncc3)n2)c2cc(-c3cn4nc(C)ccc4n3)oc2c1` [Example 232] it is 990 pM.
